Test systems include A498; CAKI-1; COLO 205; HCT-116; HCT-15; HL-60; IGROV-1; LOX IMVI; M14; MDA-MB-435; NCI-H460; NCI-H522; NCI/ADR-RES; RXF 393; SF-295; SF-539; SN12C; SR; T47D; HCC 2998.
Common to all, as to assay: growth of human tumour cells (NCI), 48 h

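1) Cells in 96-well plates. 2) Compound, 48 h, 5 concentrations. 3) Linear interpolation between surrounding doses. 4) Unreached endpoint = highest concentration. Abbreviation: GI50, concentration required for 50% inhibition of growth.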 The source made the active and inactive calls. Cut-off read from the data, not from the text of the source: active = GI50 up to about 1.1 µM and inactive = higher.

This is an account of results in ChEMBL document CHEMBL1201862, “PubChem BioAssay data set” (2004).

In the case of `CC(SC(=S)N1CCOCC1)C(=O)Nc1nnc(-c2ccccc2)o1` (configuration not stated), the GI50 was > 100 µM (inactive) in the assay with A498; > 100 µM (inactive) with CAKI-1; > 100 µM (inactive) with COLO 205; 93.3 µM (inactive) in the assay with HCT-116; 29.7 µM with HCT-15; 5.05 µM (inactive) with HL-60. Further, the GI50 in the assay on IGROV-1 is 99.1 µM (inactive); in the assay on LOX IMVI, 71.4 µM (inactive); in the assay with M14, > 100 µM (inactive); with MDA-MB-435 it was > 100 µM (inactive); in the assay on NCI-H460, > 100 µM (inactive); with NCI-H522, 39.8 µM (inactive). The GI50 in the assay with NCI/ADR-RES was 26.1 µM (inactive); in the assay with RXF 393, > 100 µM (inactive); with SF-295, 88.5 µM (inactive); in the assay with SF-539, > 100 µM (inactive); with SN12C, 93.3 µM (inactive); in the assay with SR, 21.8 µM (inactive). The GI50 with T47D is 91.6 µM (inactive).
For `CC(=O)Nc1ncc(Sc2ccccc2C(=O)O)s1`, the GI50 was > 100 µM (inactive) with A498; > 100 µM (inactive) in the assay with CAKI-1; > 100 µM (inactive) in the assay on COLO 205; > 100 µM (inactive) with HCT-116; above 100 µM in the assay with HCT-15; > 100 µM (inactive) in the assay on HL-60. The GI50 in the assay on IGROV-1, in the assay on LOX IMVI, in the assay on M14, in the assay on MDA-MB-435, in the assay on NCI-H460 and in the assay with NCI/ADR-RES was > 100 µM (inactive) each time. The GI50 with RXF 393, in the assay with SF-295, in the assay on SF-539, in the assay with SN12C, in the assay on SR and in the assay with T47D was > 100 µM (inactive) each time.
In the case of `CC(=O)NC1=C(Sc2ccc(Cl)cc2)C(=O)c2ccccc2C1=O`, the GI50 in the assay with A498 was 3.5 µM (inactive); in the assay with CAKI-1, 3.7 µM (inactive); with COLO 205, 2 µM (inactive); in the assay on HCC 2998, 14.7 µM (inactive); in the assay with HCT-15, 4.15 µM; in the assay on HL-60, 0.285 µM (active). Further, the GI50 is 4.84 µM (inactive) in the assay on IGROV-1; 3.55 µM (inactive) in the assay with LOX IMVI; 2.08 µM (inactive) in the assay with MDA-MB-435; 8.34 µM (inactive) in the assay with NCI-H460; 0.272 µM (active) in the assay on NCI-H522; 2.37 µM (inactive) with NCI/ADR-RES. For the same compound, the GI50 in the assay on RXF 393 is 1.86 µM (inactive); in the assay with SF-295 it was 8.81 µM (inactive); in the assay with SF-539, 2.15 µM (inactive); with SN12C it was 4.67 µM (inactive); with SR it was 2.21 µM (inactive); in the assay with T47D, 2.06 µM (inactive).
For `COC12C=CC(CC1)C1C(=O)c3c(C)c(C)n(C)c3C(=O)C12` (configuration not stated), the GI50 in the assay on A498 was > 100 µM (inactive); with COLO 205, > 100 µM (inactive); in the assay with HCT-116, 89.5 µM (inactive); in the assay on HCT-15 it was 15.4 µM; in the assay with IGROV-1 it was 73.5 µM (inactive); with LOX IMVI, > 100 µM (inactive). The GI50 in the assay with M14 was > 100 µM (inactive); with MDA-MB-435, 83.2 µM (inactive); in the assay with NCI-H460, > 100 µM (inactive); in the assay on NCI/ADR-RES it was > 100 µM (inactive); in the assay with RXF 393, > 100 µM (inactive); with SF-295 it was > 100 µM (inactive). Moreover, the GI50 is > 100 µM (inactive) with SF-539, 27 µM (inactive) in the assay with SR and > 100 µM (inactive) with T47D.
Turning to `COc1cc(/C=C2\Sc3scc(-c4cccc([N+](=O)[O-])c4)[n+]3C2=O)cc(OC)c1OC`, the GI50 with A498 was 47 µM (inactive); in the assay on CAKI-1, 5.98 µM (inactive); with COLO 205, 3.87 µM (inactive); in the assay with HCC 2998, 14.5 µM (inactive); with HCT-116, 11.1 µM (inactive); with HL-60, 36.7 µM (inactive). The GI50 was 14 µM (inactive) in the assay on IGROV-1; 10.7 µM (inactive) with LOX IMVI; 11.7 µM (inactive) in the assay on M14; 12.6 µM (inactive) in the assay on MDA-MB-435; 11 µM (inactive) in the assay with NCI-H460; 4.67 µM (inactive) in the assay with NCI-H522. For the same compound, the GI50 with NCI/ADR-RES was 17.4 µM (inactive); with RXF 393, 12.5 µM (inactive); with SF-295 it was 16.3 µM (inactive); in the assay with SF-539, 8.89 µM (inactive); with SN12C it was 18.1 µM (inactive); in the assay with SR, 2.05 µM (inactive). The GI50 with T47D was 5.56 µM (inactive).
As for `N#Cc1c(-c2ccccc2)cc(-c2ccc(Cl)cc2)[nH]c1=S`, the GI50 is 22.6 µM (inactive) with A498; 51.4 µM (inactive) in the assay on CAKI-1; 25.4 µM (inactive) in the assay on COLO 205; 31.9 µM (inactive) in the assay on HCC 2998; 33.1 µM (inactive) in the assay with HCT-116; 25.8 µM in the assay on HCT-15. Also, the GI50 with HL-60 was 45.6 µM (inactive); with IGROV-1 it was 26.7 µM (inactive); in the assay with LOX IMVI, 25.5 µM (inactive); in the assay with M14, 38.9 µM (inactive); with MDA-MB-435 it was 14.3 µM (inactive); in the assay on NCI-H460 it was 32.5 µM (inactive). Moreover, the GI50 was 27.4 µM (inactive) in the assay with NCI-H522; 39.4 µM (inactive) with NCI/ADR-RES; 34 µM (inactive) with RXF 393; 27.1 µM (inactive) in the assay with SF-295; 39.5 µM (inactive) in the assay on SN12C; 23.8 µM (inactive) with SR. Besides, in the assay on T47D, the GI50 was 18.7 µM (inactive).
`Oc1cccc(-c2cn3cc(Cl)ccc3n2)c1`: the GI50 with A498 was 45.3 µM (inactive); in the assay on CAKI-1, 70 µM (inactive); in the assay on COLO 205, 33.6 µM (inactive); in the assay with HCC 2998, 38.4 µM (inactive); with HCT-116, 57.9 µM (inactive); with HCT-15, 30.7 µM. Also, the GI50 in the assay with HL-60 was 5.4 µM (inactive); with IGROV-1, 16.7 µM (inactive); with LOX IMVI, 45.7 µM (inactive); with M14, 49.7 µM (inactive); in the assay with MDA-MB-435 it was 34.9 µM (inactive); with NCI-H460 it was 34 µM (inactive). For the same compound, the GI50 with NCI-H522 is 15.9 µM (inactive); in the assay on NCI/ADR-RES it was 34.5 µM (inactive); with RXF 393, 23.1 µM (inactive); with SF-295, 39.4 µM (inactive); in the assay on SN12C, 57.1 µM (inactive); in the assay on SR, 47.2 µM (inactive). For the same compound, the GI50 in the assay with T47D is 12.7 µM (inactive).
On to `C=C(C)[C@@]12C[C@H](OC(=O)[C@H](O)[C@@H](NC(=O)c3ccccc3)c3ccccc3)C(C)=C1[C@@H](OC(C)=O)C(=O)[C@@]1(C)C([C@@H]2OC(=O)c2cc(F)cc(F)c2)C2(OC(C)=O)CO[C@@H]2C[C@@H]1O` (some centres not stated), for which the GI50 is 0.164 µM (active) in the assay on A498; 0.525 µM (active) in the assay with CAKI-1; 0.0789 µM (active) in the assay on COLO 205; 0.0668 µM (active) in the assay with HCC 2998; 0.0201 µM (active) in the assay with HCT-116; 0.292 µM in the assay with HCT-15. Further, the GI50 was 0.0269 µM (active) in the assay on HL-60; 0.361 µM (active) with IGROV-1; 0.0791 µM (active) in the assay with LOX IMVI; 0.141 µM (active) in the assay on M14; 0.0117 µM (active) in the assay with MDA-MB-435; 0.0348 µM (active) in the assay on NCI-H460. For the same compound, the GI50 in the assay with NCI/ADR-RES is 1.57 µM (inactive); in the assay on RXF 393, 0.0578 µM (active); in the assay on SF-295, > 10 µM (inactive); in the assay with SF-539, 0.0282 µM (active); in the assay on SN12C, 0.144 µM (active); in the assay on SR, 0.169 µM (active). In the assay with T47D, the GI50 is 0.117 µM (active).
As for `CCOC(=O)c1cnc2oc3ccc(O)cc3c2c1C`, the GI50 in the assay with A498 was 98.2 µM (inactive); in the assay on CAKI-1 it was 67 µM (inactive); in the assay with COLO 205, > 100 µM (inactive); in the assay on HCC 2998 it was > 100 µM (inactive); in the assay on HCT-116 it was > 100 µM (inactive); with HCT-15 it was above 100 µM. Also, the GI50 was > 100 µM (inactive) with HL-60; > 100 µM (inactive) in the assay with LOX IMVI; > 100 µM (inactive) in the assay on M14; > 100 µM (inactive) in the assay with MDA-MB-435; > 100 µM (inactive) in the assay on NCI-H460; 41.6 µM (inactive) in the assay with NCI/ADR-RES. Moreover, the GI50 in the assay on RXF 393 was > 100 µM (inactive); in the assay with SF-295, 78.7 µM (inactive); in the assay on SF-539 it was 39.8 µM (inactive); in the assay with SN12C it was > 100 µM (inactive); with SR, 74 µM (inactive); in the assay on T47D, 38.5 µM (inactive).
For `CC(C)(O)[C@@H]1CC[C@](C)(C2[C@@H](O)C[C@@]3(C)C4C[C@H](OC5OCC(O)C(O)C5O)[C@H]5C(C)(C)[C@@H](OC6OCC(O)C(O)C6OC6OCC(O)C(O)C6O)CC[C@@]56C[C@@]46CC[C@]23C)O1` (some centres not stated), the GI50 with A498 is > 100 µM (inactive); in the assay with CAKI-1 it was > 100 µM (inactive); in the assay on COLO 205, > 100 µM (inactive); in the assay on HCC 2998 it was > 100 µM (inactive); in the assay with HCT-116, > 100 µM (inactive); in the assay with HCT-15, above 100 µM. Moreover, the GI50 with HL-60, with IGROV-1, with M14, in the assay with MDA-MB-435, with NCI-H460 and with NCI-H522 was > 100 µM (inactive) in each case. Besides, the GI50 with NCI/ADR-RES, in the assay with RXF 393, with SF-295, in the assay on SF-539, in the assay with SN12C and in the assay with SR was > 100 µM (inactive) throughout. For the same compound, in the assay on T47D, the GI50 was > 100 µM (inactive).
As for `CN(C)c1ccccc1CN1CCCN(Cc2ccccc2N(C)C)C1c1ccncc1`, the GI50 in the assay on A498 was 12.4 µM (inactive); with CAKI-1, 16.7 µM (inactive); with COLO 205, 14.9 µM (inactive); in the assay with HCT-116, 11.2 µM (inactive); in the assay with HCT-15 it was 22.2 µM; with HL-60, 13 µM (inactive). Further, the GI50 is 14.9 µM (inactive) in the assay on IGROV-1; 13.6 µM (inactive) in the assay with LOX IMVI; 2.33 µM (inactive) with M14; 6.28 µM (inactive) in the assay with MDA-MB-435; 14 µM (inactive) with NCI-H460; 13 µM (inactive) in the assay on NCI-H522. Besides, the GI50 with NCI/ADR-RES was 24.1 µM (inactive); in the assay with RXF 393, 10.2 µM (inactive); in the assay on SF-295 it was 15.3 µM (inactive); with SF-539 it was 16.4 µM (inactive); in the assay with SN12C, 20.4 µM (inactive); in the assay with SR, 4.91 µM (inactive). In addition, the GI50 with T47D was 17.7 µM (inactive).
